In patent US12043600B2, “Microbiocidal compounds” (SYNGENTA CROP PROTECTION AG, priority 2018, dated 2024):

What was measured:
[1] = test system: Botryotinia fuckeliana (Botrytis cinerea); assay: Botryotinia fuckeliana (Botrytis cinerea)/Liquid Culture (Gray Mould); assay type: cell-based; details: liquid culture, compared to untreated control
Description: Conidia of the fungus from cryogenic storage are directly mixed into nutrient broth (Vogels broth). After placing a (DMSO) solution of test compound into a microtiter plate (96-well format), the nutrient broth containing the fungal spores is added.

[2] = test system: Glomerella lagenarium (Colletotrichum lagenarium); assay: Glomerella lagenarium (Colletotrichum lagenarium)/Liquid Culture (Anthracnose); assay type: cell-based; details: Colletotrichum orbiculare, liquid culture, compared to untreated control
[3] = test system: Blumeria graminis f. sp. tritici (Erysiphe graminis f. sp. tritici); assay: Blumeria graminis f. sp. tritici/Wheat/Leaf Disc Preventative (Powdery Mildew on Wheat); assay type: in vivo; details: foliar, wheat leaf disc preventative, compared to untreated control
Description: Wheat leaf segments cv. Kanzler are placed on agar in a multiwell plate (24-well format) and sprayed with the formulated test compound diluted in water. The leaf disks are inoculated by shaking powdery mildew infected plants above the test plates 1 day after application. The inoculated leaf disks are incubated at 20° C. and 60% rh under a light regime of 24 h darkness followed by 12 h light/12 h darkness in a climate chamber and the activity of a compound is assessed as percent disease control compared to untreated when an appropriate level of disease damage appears on untreated check leaf segments (6-8 days after application).

[4] = test system: Phaeosphaeria nodorum (Septoria nodorum); assay: Phaeosphaeria nodorum (Septoria nodorum)/Wheat/Leaf Disc Preventative (Glume Blotch); assay type: in vivo; details: Parastagonospora nodorum, foliar, wheat leaf disc preventative, compared to untreated control
Description: Wheat leaf segments cv. Kanzler are placed on agar in a multiwell plate (24-well format) and sprayed with the formulated test compound diluted in water. The leaf disks are inoculated with a spore suspension of the fungus 2 days after application. The inoculated test leaf disks are incubated at 20° C. and 75% rh under a light regime of 12 h light/12 h darkness in a climate cabinet and the activity of a compound is assessed as percent disease control compared to untreated when an appropriate level of disease damage appears in untreated check leaf disks (5-7 days after application).

[5] = test system: Monographella nivalis (Microdochium nivale); assay: Monographella nivalis (Microdochium nivale)/Liquid Culture (Foot Rot Cereals); assay type: cell-based; details: liquid culture, compared to untreated control
Description: (§1) Conidia of the fungus from cryogenic storage are directly mixed into nutrient broth (PDB potato dextrose broth). After placing a (DMSO) solution of test compound into a microtiter plate (96-well format), the nutrient broth containing the fungal spores is added.

[6] = test system: Mycosphaerella arachidis (Cercospora arachidicola); assay: Mycosphaerella arachidis (Cercospora arachidicola)/Liquid Culture (Early Leaf Spot); assay type: cell-based; details: liquid culture, compared to untreated control
Description: as §1

Phytophthora infestans = assay: whole plant or invertebrate; assay type: in vivo; details: in Solanum lycopersicum, foliar, read-out: control of Phytophthora infestans
Plasmopara viticola = assay: whole plant or invertebrate; assay type: in vivo; details: foliar, read-out: control of Plasmopara viticola
[7] = test system: Puccinia recondita f. sp. tritici; assay: Puccinia recondita f. sp. tritici/Wheat/Leaf Disc Curative (Brown Rust); assay type: in vivo; details: foliar, wheat leaf disc curative, compared to untreated control
Description: Wheat leaf segments cv. Kanzler are placed on agar in multiwell plates (24-well format). The leaf segments are inoculated with a spore suspension of the fungus. Plates are stored in darkness at 19° C. and 75% rh. The formulated test compound diluted in water is applied 1 day after inoculation. The leaf segments are incubated at 19° C. and 75% rh under a light regime of 12 h light/12 h darkness in a climate cabinet and the activity of a compound is assessed as percent disease control compared to untreated when an appropriate level of disease damage appears in untreated check leaf segments (6-8 days after application).

[8] = test system: Puccinia recondita f. sp. tritici; assay: Puccinia recondita f. sp. tritici/Wheat/Leaf Disc Preventative (Brown Rust); assay type: in vivo; details: foliar, 200 ppm, wheat leaf disc preventative, compared to untreated control, read-out: control of Puccinia recondita f. sp. tritici
[9] = test system: Mycosphaerella graminicola (Septoria tritici); assay: Mycosphaerella graminicola (Septoria tritici)/Liquid Culture (Septoria Blotch); assay type: cell-based; details: Zymoseptoria tritici; 20 ppm; liquid culture; compared to untreated control
Description: Conidia of the fungus from cryogenic storage are directly mixed into nutrient broth (PDB potato dextrose broth). After placing a (DMSO) solution of test compound into a microtiter plate (96-well format), the nutrient broth containing the fungal spores is added. […] The data are presented as the percentage of disease control of each compound for the biological tests against G. lagenarium (Example B3), P. recondita preventative (Example B13), P. teres (Example B15) and M. graminicola (Example B19) as described above. The testing rates of each biological test is specifically described in table C1 below.

[10] = test system: Magnaporthe grisea (Pyricularia oryzae); assay: whole plant or invertebrate; assay type: in vivo; details: foliar, read-out: control of Magnaporthe grisea
Phakopsora pachyrhizi = assay: Phakopsora pachyrhizi/Soybean/Preventative (Soybean Rust); assay type: in vivo; details: foliar, 288 h, 200 ppm, soybean leaf disc preventative, compared to untreated control, read-out: control of Phakopsora pachyrhizi

Compound	inhibition of growth at 20 ppm [1] [%]	inhibition of growth at 20 ppm [2] [%]	pest or weed control at 200 ppm [3] [%]	pest or weed control at 200 ppm [4] [%]	inhibition of growth at 20 ppm [5] [%]	inhibition of growth at 20 ppm [6] [%]	pest or weed control at 200 ppm (Phytophthora infestans) [%]	pest or weed control at 200 ppm (Plasmopara viticola) [%]	pest or weed control at 200 ppm [7] [%]	pest or weed control at 200 ppm [8] [%]	inhibition of growth at 20 ppm [9] [%]	pest or weed control at 200 ppm [10] [%]	pest or weed control at 200 ppm (Phakopsora pachyrhizi) [%]	melting point [°C]
CO/C=C(\Oc1cc(-n2ccc(C(F)F)n2)ccc1C)C(=O)OC [Compound E-96, methyl (Z)-2-[5-[3-(difluoromethyl)pyrazol-1-yl]-2-methyl-phenoxy]-3-methoxy-prop-2-enoate]	≥ 80	≥ 80	≥ 80	≥ 80	≥ 80	≥ 80	≥ 80	≥ 80	≥ 80	≥ 80	≥ 80			
CCCc1nn(-c2ccc(C)c(O/C(=C\OC)C(=O)OC)c2)cc1Cl [Compound E-6, methyl (Z)-2-[5-(4-chloro-3-propyl-pyrazol-1-yl)-2-methyl-phenoxy]-3-methoxy-prop-2-enoate]	≥ 80	≥ 80		≥ 80	≥ 80	≥ 80	≥ 80	≥ 80		≥ 80	≥ 80	≥ 80		
CO/C=C(\Oc1cc(-n2ccc(C)n2)c(OC)cc1C)C(=O)OC [Compound E-37, methyl (Z)-3-methoxy-2-[4-methoxy-2-methyl-5-(3-methylpyrazol-1-yl)phenoxy]prop-2-enoate]	≥ 80				≥ 80	≥ 80		≥ 80	≥ 80	≥ 80	≥ 80		≥ 50	99 to 101
CO/C=C(\Oc1cc(-n2ccc(OC)n2)ccc1C)C(=O)OC [Compound E-95, methyl (Z)-3-methoxy-2-[5-(3-methoxypyrazol-1-yl)-2-methyl-phenoxy]prop-2-enoate]	≥ 80	≥ 80	≥ 80		≥ 80	≥ 80	≥ 80	≥ 80	≥ 80	≥ 80	≥ 80			120 to 123
CO/C=C(\Oc1cc(-n2ccc(CC#N)n2)ccc1C)C(=O)OC [Compound E-33, methyl (Z)-2-[5-[3-(cyanomethyl)pyrazol-1-yl]-2-methyl-phenoxy]-3-methoxy-prop-2-enoate]	≥ 80	≥ 80			≥ 80	≥ 80		≥ 80		≥ 80	≥ 80			120 to 123
CO/C=C(\Oc1cc(-n2cc(C)c(C)n2)ccc1C)C(=O)OC [Compound E-116, methyl (Z)-2-[5-(3,4-dimethylpyrazol-1-yl)-2-methyl-phenoxy]-3-methoxy-prop-2-enoate]	≥ 80	≥ 80	≥ 80		≥ 80	≥ 80	≥ 80	≥ 80	≥ 80	≥ 80	≥ 80			155 to 157
CO/C=C(\Oc1cc(-n2cc(COC)cn2)ccc1C)C(=O)OC [Compound E-51, methyl (Z)-3-methoxy-2-[5-[4-(methoxymethyl)pyrazol-1-yl]-2-methyl-phenoxy]prop-2-enoate]	≥ 80	≥ 80	≥ 80		≥ 80	≥ 80		≥ 80	≥ 80	≥ 80	≥ 80	≥ 80	≥ 50	
CO/C=C(\Oc1cc(-n2ccc(Cl)n2)ccc1C)C(=O)OC [Compound E-100, methyl (Z)-2-[5-(3-chloropyrazol-1-yl)-2-methyl-phenoxy]-3-methoxy-prop-2-enoate]	≥ 80	≥ 80	≥ 80	≥ 80	≥ 80	≥ 80	≥ 80	≥ 80		≥ 80	≥ 80	≥ 80		150 to 152
CO/C=C(\Oc1cc(-n2cc(Br)cn2)ccc1C)C(=O)OC [Compound E-47, methyl (Z)-2-[5-(4-bromopyrazol-1-yl)-2-methyl-phenoxy]-3-methoxy-prop-2-enoate]	≥ 80	≥ 80	≥ 80	≥ 80	≥ 80	≥ 80	≥ 80	≥ 80	≥ 80	≥ 80	≥ 80	≥ 80	≥ 50	
CO/C=C(\Oc1cc(-n2cc(C(C)(C)C)cn2)ccc1C)C(=O)OC [Compound E-49, methyl (Z)-2-[5-(4-tert-butylpyrazol-1-yl)-2-methyl-phenoxy]-3-methoxy-prop-2-enoate]	≥ 80	≥ 80		≥ 80	≥ 80	≥ 80	≥ 80	≥ 80	≥ 80	≥ 80	≥ 80	≥ 80		
CO/C=C(\Oc1cc(-n2ccc(SC(F)(F)F)n2)ccc1C)C(=O)OC [Compound E-61, methyl (Z)-3-methoxy-2-[2-methyl-5-[3-(trifluoromethylsulfanyl)pyrazol-1-yl]phenoxy]prop-2-enoate]	≥ 80	≥ 80	≥ 80		≥ 80	≥ 80	≥ 80	≥ 80		≥ 80	≥ 80	≥ 80	≥ 50	137 to 139
